Drawing on patent US20210070748A1, “INHIBITORS OF BRUTONS TYROSINE KINASE” (Pharmacyclics LLC, priority 2015, published 2021), this text covers IC50 for 18 molecules.

Test [1] has as its target T1, BTK-WT (Homo sapiens, UniProt Q06187).
T1 construct: purified from insect cells as a full-length construct containing an N-terminal 6X-His tag; His6 (N); made in house; host or cells: insect cells (baculovirus Sf21 in Method B)
Put plainly: Btk in vitro inhibitory activity (one of Method A TR-FRET, Method B electrophoretic mobility shift, Method C radiometric filter binding). The test is classed as biochemical. Particulars: read-out: IC50 BTK-WT. The procedure:
Btk kinase activity is determined using a time-resolved fluorescence resonance energy transfer (TR-FRET) methodology. Measurements are performed in a reaction volume of 50 μL using 96-well assay plates. […] The reaction is quenched by the addition of 1.2 equivalents of EDTA (relative to divalent cation) in 25 μL of 1× Lance buffer (Perkin-Elmer). […] The TR-FRET signal is measured on a multimode plate reader with an excitation wavelength (λEx) of 330 nm and detection wavelengths (λEm) of 615 and 665 nm. Activity is determined by the ratio of the fluorescence at 665 nm to that at 615 nm. For each compound, enzyme activity is measured at various concentrations of compound. Negative control reactions are performed in the absence of inhibitor in replicates of six, and two no-enzyme controls are used to determine baseline fluorescence levels. Inhibition constants, Ki(app), were obtained using the program BatchKi(Kuzmic et al. (2000), Anal. Biochem. 286:45-50). IC50s are obtained according to the equation:
IC50={Ki(app)/(1+[ATP]/Km^ATP)}+[E]total/2;
Kinase activity is measured in vitro using electrophoretic mobility shift assay. The kinase reactions are assembled in a total volume of 25 μL in 384 well plates. […] The reaction is incubated for one hour and is quenched by the addition of 45 μL of termination buffer (100 mM HEPES, pH7.5, 0.01% Triton X-100, 30 mM EDTA). The terminated reactions are analyzed using 12 channel LabChip® 3000 microfluidic detection instrument (Caliper Life Sciences). […] Change in the relative fluorescence intensity of the substrate and product peaks is the parameter measured, reflecting enzyme activity. In the presence of an inhibitor, the ratio between product and substrate is altered: the signal of the product decreases, while the signal of the substrate increases.
Activity in each sample is determined as the product to sum ratio (PSR): P/(S+P), where P is the peak height of the product peptide and S is the peak height of the substrate peptide. For each compound, enzyme activity is measured at various concentrations (12 concentrations of compound spaced by 3× dilution intervals). Negative control samples (0%-inhibition in the absence of inhibitor) and positive control samples (100%-inhibition, in the presence of 20 mM EDTA) are assembled in replicates of four and are used to calculate %-inhibition values for each inhibitor at each concentration. Percent inhibition (Pinh) is determined using following equation:
Pinh=(PSR0%-PSRinh)/(PSR0%−PSR100%)*100, where PSRinh is the product sum ratio in the presence of inhibitor, PSR0% is the average product sum ration in the absence of inhibitor and PSR100% is the average product sum ratio in 100%-inhibition control samples;
The IC50 values of inhibitors are determined by 4 parameter sigmoidal dose-response model fitting of the inhibition curves (Pinh versus inhibitor concentration) using XLfit 4 software.
Human Btk kinase (Genbank accession # NP_000052) was purified from insect cells as a full-length construct containing an N-terminal 6X-His tag. Btk kinase activity was determined using a radiometric filter binding assay. Measurements are performed in a low μL reaction volume 384-well assay plates. […] IC50 values and curve fits were obtained using Prism (GraphPad Software).

Test [2] deals with T2, ITK (Homo sapiens, UniProt Q08881).
T2 sequence (Q08881 1-620): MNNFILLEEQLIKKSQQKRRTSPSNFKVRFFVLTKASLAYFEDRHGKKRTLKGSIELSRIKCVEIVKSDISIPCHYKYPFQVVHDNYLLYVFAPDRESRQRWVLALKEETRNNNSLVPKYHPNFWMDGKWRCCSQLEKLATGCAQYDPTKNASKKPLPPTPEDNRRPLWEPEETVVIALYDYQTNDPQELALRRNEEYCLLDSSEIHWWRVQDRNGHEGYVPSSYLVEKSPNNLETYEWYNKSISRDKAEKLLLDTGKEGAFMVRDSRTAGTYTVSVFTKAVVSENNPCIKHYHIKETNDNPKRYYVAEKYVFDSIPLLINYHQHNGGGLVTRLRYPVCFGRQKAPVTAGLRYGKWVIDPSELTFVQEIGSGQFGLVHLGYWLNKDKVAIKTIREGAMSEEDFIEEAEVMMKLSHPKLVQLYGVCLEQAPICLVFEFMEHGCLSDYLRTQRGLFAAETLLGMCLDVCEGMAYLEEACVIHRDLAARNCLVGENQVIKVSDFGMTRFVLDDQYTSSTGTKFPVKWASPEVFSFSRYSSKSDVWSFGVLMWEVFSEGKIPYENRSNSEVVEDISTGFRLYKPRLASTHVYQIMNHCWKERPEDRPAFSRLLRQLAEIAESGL
Kind of test: Inhibition of a panel of kinases, in vitro HotSpot kinase assay: ITK. In kind it is biochemical. The procedure: The degree of inhibition of a panel of kinases is determined using the in vitro HotSpot kinase assay (purified enzymes, ^33P-ATP, an appropriate substrate and 1 μM ATP).

The mark [3] stands for this setting: Table 15, C compounds, 1 μM ATP.

pIC50: −log10 of the molar value. Where two headings read alike, the source gives them in different places.

T1 sequence (Q06187 whole entry): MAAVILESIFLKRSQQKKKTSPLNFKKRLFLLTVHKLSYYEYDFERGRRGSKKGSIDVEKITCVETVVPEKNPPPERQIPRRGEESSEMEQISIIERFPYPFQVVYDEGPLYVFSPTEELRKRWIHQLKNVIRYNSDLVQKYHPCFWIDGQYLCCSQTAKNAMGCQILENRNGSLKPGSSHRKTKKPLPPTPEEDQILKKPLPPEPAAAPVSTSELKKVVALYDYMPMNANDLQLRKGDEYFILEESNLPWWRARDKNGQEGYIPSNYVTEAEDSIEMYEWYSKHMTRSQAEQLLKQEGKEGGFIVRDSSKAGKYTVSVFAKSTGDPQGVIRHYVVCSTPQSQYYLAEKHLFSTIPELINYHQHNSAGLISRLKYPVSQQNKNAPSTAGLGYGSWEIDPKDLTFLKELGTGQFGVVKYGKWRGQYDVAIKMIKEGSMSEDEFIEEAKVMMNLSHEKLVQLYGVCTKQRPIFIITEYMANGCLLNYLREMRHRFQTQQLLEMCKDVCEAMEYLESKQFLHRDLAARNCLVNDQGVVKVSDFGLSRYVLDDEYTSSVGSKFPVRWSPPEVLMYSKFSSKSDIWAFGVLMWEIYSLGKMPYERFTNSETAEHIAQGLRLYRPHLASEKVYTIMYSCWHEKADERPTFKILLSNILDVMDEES

Take `CN(c1cnc(C(N)=O)c(Nc2ccc(C3(C)CCN(C4CCCC4)CC3)cc2)n1)[C@@H]1CCN(C(=O)C(F)(F)F)C1` [Example E-107, (R)-3-(4-(1-cyclopentyl-4-methylpiperidin-4-yl)phenylamino)-5-(methyl(1-(2,2,2-trifluoroacetyl)pyrrolidin-3-yl)amino)pyrazine-2-carboxamide]: the pIC50 is no less than 8.00 in test [1] (E compounds, Table 17) and no less than 8.00 in test [2] (E compounds, Table 17).
In the case of `C=CC(=O)N1CCC[C@H](Nc2cnc(C(N)=O)c(Nc3ccc(C(C)C)cc3)n2)C1` [Example C-37, (S)-5-(1-acryloylpiperidin-3-ylamino)-3-(4-isopropylphenylamino) pyrazine-2-carboxamide], the pIC50 in test [1] (Table 15, C compounds) was no less than 8.00; in test [2] (setting [3]), 6.00 to 7.00.
For the molecule `C=CC(=O)N[C@H]1CCCC[C@H]1Nc1nnc(C(N)=O)c(Nc2ccc(C(C)C)cc2)n1` [Example E-25, 3-((1R,2S)-2-acrylamidocyclohexyl-amino)-5-(4-isopropylphenylamino)-1,2,4-triazine-6-carboxamide], the pIC50 in test [1] (E compounds, Table 17) is no less than 8.00; in test [2] (E compounds, Table 17), 6.00 to 7.00.
With `C=CC(=O)N1CCC[C@@H](Nc2nnc(C(N)=O)c(Nc3ccc(CN[C@@H](C)C(C)(C)C)cc3)n2)C1` [Example C-73, 3-((R)-1-acryloylpiperidin-3-ylamino)-5-(4-(((S)-3,3-dimethylbutan-2-ylamino)methyl)phenyl-amino)-1,2,4-triazine-6-carboxamide], the pIC50 in test [1] (Table 15, C compounds) is no less than 8.00; in test [2] (setting [3]), no less than 8.00.
For the molecule `C=CC(=O)N[C@@H]1CCCN(c2nnc(C(N)=O)c(Nc3ccc(C(C)C)cc3)n2)C1` [Example A-94, (R)-3-(3-acrylamido-piperidin-1-yl)-5-(4-isopropylphenylamino)-1,2,4-triazine-6-carboxamide], the pIC50 in test [1] (Table 13, A compounds) was 7.00 to 8.00; in test [2] (Table 13, A compounds, 1 μM ATP), 6.00 to 7.00.
Regarding `C=CC(=O)N[C@@H]1CCCN(c2nnc(C(N)=O)c(Nc3ccc(C(C)C)cc3)n2)C1` [Example E-21, (R)-3-(3-acrylamidopiperidin-1-yl)-5-(4-isopropylphenylamino)-1,2,4-triazine-6-carboxamide], the pIC50 in test [1] (E compounds, Table 17) is 7.00 to 8.00; in test [2] (E compounds, Table 17) it was 6.00 to 7.00.
The like results for `C=CC(=O)N1CCC(C)(c2ccc(Nc3nc(N[C@@H]4CCCN(C(=O)C=C)C4)nnc3C(N)=O)cc2)CC1` [Example E-32, (R)-5-(4-(1-acryloyl-4-methylpiperidin-4-yl)phenylamino)-3-(1-acryloylpiperidin-3-ylamino)-1,2,4-triazine-6-carboxamide] were, in that order, no less than 8.00 and no less than 8.00.
As for `C=CC(=O)N1CCC[C@@H](Nc2nnc(C(N)=O)c(Nc3cccc(-c4nccs4)c3)n2)C1` [Example E-70, (R)-3-(1-acryloylpiperidin-3-ylamino)-5-(3-(thiazol-2-yl)phenylamino)-1,2,4-triazine-6-carboxamide], the pIC50 in test [1] (E compounds, Table 17) is no less than 8.00; in test [2] (E compounds, Table 17), 7.00 to 8.00.
As to `CN1C(=O)CCc2cc(Nc3nc(N[C@@H]4CCCN(C(=O)OC(C)(C)C)C4)nnc3C(N)=O)ccc21` [Example E-72, (R)-tert-butyl 3-(6-carbamoyl-5-(1-methyl-2-oxo-1,2,3,4-tetrahydroquinolin-6-ylamino)-1,2,4-triazin-3-ylamino)piperidine-1-carboxylate], the negative-log IC50 (pIC50) in test [1] (E compounds, Table 17) is 7.00 to 8.00; in test [2] (E compounds, Table 17) it was 5.00 to 6.00.
As for `C=CC(=O)N1CCCC[C@@H](Nc2nnc(C(N)=O)c(Nc3ccc(C(C)C)cc3)n2)C1` [Example C-38, (R)-3-(1-acryloylazepan-3-ylamino)-5-(4-isopropylphenylamino)-1,2,4-triazine-6-carboxamide], the pIC50 in test [1] (Table 15, C compounds) is no less than 8.00; in test [2] (setting [3]), no less than 8.00.
With `C=CC(=O)N1CCC[C@@H](Nc2nnc(C(N)=O)c(Nc3ccc(C4(C#N)CC4)cc3)n2)C1` [Example C-48, (R)-3-(1-acryloylpiperidin-3-ylamino)-5-(4-(1-cyanocyclopropyl)phenylamino)-1,2,4-triazine-6-carboxamide], the pIC50 in test [1] (Table 15, C compounds) is no less than 8.00; in test [2] (setting [3]), no less than 8.00.
Regarding `C=CC(=O)N1CCC[C@@H](Nc2nnc(C(N)=O)c(Nc3ccc(C(C)C)cc3)n2)[C@@H]1C` (racemic) [Example C-33, 3-((2S,3R)-1-acryloyl-2-methylpiperidin-3-ylamino)-5-(4-isopropylphenylamino)-1,2,4-triazine-6-carboxamide], the pIC50 in test [1] (Table 15, C compounds) is no less than 8.00; in test [2] (setting [3]) it was 7.00 to 8.00.
Turning to `C=CC(=O)N1CCC[C@@H](Nc2nnc(C(N)=O)c(Nc3cccc(-c4nccs4)c3)n2)C1` [Example C-86, (R)-3-(1-acryloylpiperidin-3-ylamino)-5-(3-(thiazol-2-yl)phenylamino)-1,2,4-triazine-6-carboxamide], the pIC50 is no less than 8.00 in test [1] (Table 15, C compounds) and 7.00 to 8.00 in test [2] (setting [3]).
As to `C=CC(=O)N[C@@H]1CCCC[C@H]1Nc1nnc(C(N)=O)c(Nc2ccc(C(C)C)cc2)n1` [Example E-28, 3-((1R,2R)-2-acrylamidocyclo-hexylamino)-5-(4-isopropylphenylamino)-1,2,4-triazine-6-carboxamide], the negative-log IC50 (pIC50) was no less than 8.00 in test [1] (E compounds, Table 17) and 6.00 to 7.00 in test [2] (E compounds, Table 17).
Take `C=CC(=O)N1CCC[C@@H](Nc2nnc(C(N)=O)c(Nc3ccc4c(c3)CCC(=O)N4C)n2)C1` [Example C-87, (R)-3-(1-acryloylpiperidin-3-ylamino)-5-(1-methyl-2-oxo-1,2,3,4-tetrahydroquinolin-6-ylamino)-1,2,4-triazine-6-carboxamide]: the pIC50 was no less than 8.00 in test [1] (Table 15, C compounds) and no less than 8.00 in test [2] (setting [3]).
Consider `C=CC(=O)N1CCC[C@@H](Nc2nnc(C(N)=O)c(Nc3ccc(C4CC4)cc3)n2)C1` [Example C-47, (R)-3-(1-acryloylpiperidin-3-ylamino)-5-(4-cyclopropylphenyl-amino)-1,2,4-triazine-6-carboxamide], for which the pIC50 in test [1] (Table 15, C compounds) was no less than 8.00; in test [2] (setting [3]), 7.00 to 8.00.
As to `C=CC(=O)N1CCC[C@@H](Nc2nnc(C(N)=O)c(Nc3ccc(CN[C@@H](C)C(C)(C)C)cc3)n2)C1` [Example E-57, 3-((R)-1-acryloylpiperidin-3-ylamino)-5-(4-(((S)-3,3-dimethylbutan-2-ylamino)methyl)phenyl-amino)-1,2,4-triazine-6-carboxamide], the pIC50 in test [1] (E compounds, Table 17) was no less than 8.00; in test [2] (E compounds, Table 17), no less than 8.00.
Regarding `CN(c1cnc(C(N)=O)c(Nc2ccc(C3(C)CCN(C4CC4)CC3)cc2)n1)[C@@H]1CCN(C(=O)C(F)(F)F)C1` [Example E-105, (R)-3-(4-(1-cyclopropyl-4-methylpiperidin-4-yl)phenylamino)-5-(methyl(1-(2,2,2-trifluoroacetyl)pyrrolidin-3-yl)amino)pyrazine-2-carboxamide], the pIC50 was no less than 8.00 in test [1] (E compounds, Table 17) and no less than 8.00 in test [2] (E compounds, Table 17).
